In US8853274B1, “Compositions and methods for targeting glioblastomas cells” (Vanderbilt University, priority 2011, dated 2014):

Assays:
Assay type in all cases: cell-based, human
T4302 CD133+ cells [1] = assay: Caspase 3/7 activation (apoptosis); conditions: for apoptotic cell death: following 3-Gy X-ray radiation, 2 μM DAPT or 0.5 μM L685,458
Description: (A) T4302 CD133+ GBM stem cells were enriched from freshly collected subcutaneous xenograft tumors, cultured in stem cell media. Cells were left unirradiated or irradiated at 3 Gy. The relative mRNA levels of Hes2 were determined by quantitative real-time PCR at the time points as indicated. (B) T4302 CD133+ cells were pre-treated with vehicle (DMSO), 2 μM DAPT or 0.5 μM L685,458 for 4 hours and irradiated as indicated. Cells were then plated to form neurospheres. Fourteen days after plating, neurospheres containing more than 50 cells were scored. To determine the surviving fractions, the number of neurosphere at each radiation dose was normalized to that of the corresponding sham-irradiated group. (C) T4302 CD133+ cells were treated with GSIs±radiation as indicated. Relative caspase 3/7 activities were determined by normalizing caspase activities to the corresponding cell numbers. (D), (E) T4302 CD133+ cells were infected with lentivirus directing expression of non-targeting shRNA or shRNAs specific to Notch1 or Notch2 (KD-Notch1 or KD-Notch2), and selected with puromycin. Relative caspase 3/7 activities and clonogenic survival were determined as described above. (F) T4302 CD133+ cells were infected with control lentivirus or lentivirus directing expression of NICD2. Clonogenic survival was determined as described above. *: p<0.05 by Student's t-test; #: p<0.01 by one-way ANOVA.
(A, B) T4302 CD133+ cells were treated with 100 nM RO4929097 (GSI) and/or 100 nM tipifarnib (FTI) for 4 hours prior to 3 Gy radiation. (A) Cell growth on day 5 and (B) caspase 3/7 activation on day 3 were determined as described in FIG. 4. #: p<0.001 by one-way ANOVA, combo vs. single agents. (C) The effects of GSIs and FTI against growth of T4302 CD133− cells were determined as described in panel A. (D, E) T4302 CD133+ cells were treated with GSI, FTI, or a 1:1 mixture at different concentrations (ranging from 3000 nM to ˜0.5 nM, 1:3 dilution)±3 Gy radiation. Cell viability was determined at 5 days after treatment in comparison to vehicle-treated groups. […] (F) T4302 CD 133+ cells were treated by GSI±FTI with a 2-fold dilution. Neurospheres were countered on day 10, and normalized to the vehicle-treated group.

GBM 44 = assay: Growth inhibition at day 5, spheroid GBM culture
Description: (A) Known genetic features of selected GBM samples. WT: wild type; Amp: amplification; vIII: EGFRvIII; ND: not determined. (B) Spheroid GBM cultures were derived from freshly collected subcutaneous tumors and cultured for 2 weeks in stem cell media to enrich stem cell-like cancer cells. SF7225 was maintained as a primary spheroid culture. Growth inhibition at day 5 after treatment was determined as described in FIG. 5. *: p<0.01 by Student's t-test and growth inhibition ≧30% vs. the corresponding vehicle-treated groups. #: p<0.01 and >30% growth inhibition vs. the radiation only groups.
Work is now extended to a set of subcutaneous GBM xenografts (GBM) established by Dr. Jann Sarkaria and colleagues at Mayo Clinic. These samples are known to have mutational status of EGFR, p53 and PTEN and different radiosensitivity (FIG. 8A) (69-71). Because the cancer stem cell identity of CD133+ of the Mayo Clinic samples has not been validated by functional assays, the present inventor used the neurosphere culture that is widely utilized as a surrogate of GSCs for its ability to enrich GSC-like population (72, 73). Tumor response to GSI, FTI and/or radiation was determined as growth inhibition on day 5 after treatment, with a greater than 30% cell number reduction was defined as positive response mimicking the RECIST criteria (FIG. 8B). […] Therefore, the present inventor will continuously expand the GBM panel and determine the genomic features of all samples with focus on prevalent GBM-associated aberrations. On the basis of this molecularly characterized tumor panel, the present inventor will start to explore the potential biomarkers that may predict tumor response to the combination therapy of radiation, GSI and FTI by experiments described in herein.

CD133+ GBM stem cells = assay: Growth inhibition within 5 days, panel of glioblastoma xenograft samples; conditions: 5-day period; in combination with 3 Gy radiation
Description: CD133+ cells were derived from multiple glioblastoma xenograft samples as indicated. The growth inhibitory effects by GSI and/or FTIs were determined as described in FIG. 5.
Therefore, effective killing of GBM stem cells may delay or even prevent tumor recurrence. […] In combination with radiation, GSIs or FTIs alone reduced cell numbers by ˜75%.

T4302 CD133+ cells [2] = assay: Neurosphere formation (clonogenic survival); conditions: following 3-Gy X-ray radiation; 2 μM DAPT or 0.5 μM L685,458, 4 h pre-treatment
Description: (A) T4302 CD133+ GBM stem cells were enriched from freshly collected subcutaneous xenograft tumors, cultured in stem cell media. Cells were left unirradiated or irradiated at 3 Gy. The relative mRNA levels of Hes2 were determined by quantitative real-time PCR at the time points as indicated. (B) T4302 CD133+ cells were pre-treated with vehicle (DMSO), 2 μM DAPT or 0.5 μM L685,458 for 4 hours and irradiated as indicated. Cells were then plated to form neurospheres. Fourteen days after plating, neurospheres containing more than 50 cells were scored. […] Relative caspase 3/7 activities were determined by normalizing caspase activities to the corresponding cell numbers. […] Relative caspase 3/7 activities and clonogenic survival were determined as described above. […] Clonogenic survival was determined as described above. *: p<0.05 by Student's t-test; #: p<0.01 by one-way ANOVA.
(A, B) T4302 CD133+ cells were treated with 100 nM RO4929097 (GSI) and/or 100 nM tipifarnib (FTI) for 4 hours prior to 3 Gy radiation. (A) Cell growth on day 5 and (B) caspase 3/7 activation on day 3 were determined as described in FIG. 4. #: p<0.001 by one-way ANOVA, combo vs. single agents. […] Cell viability was determined at 5 days after treatment in comparison to vehicle-treated groups. […]

Compound: Cn1cncc1[C@@](N)(c1ccc(Cl)cc1)c1ccc2c(c1)c(-c1cccc(Cl)c1)cc(=O)n2C [tipifarnib]
- increase of caspase 3/7 activity compared with the sham-treated group (T4302 CD133+ cells [1]; following 3-Gy radiation, 100 nM, day 3): approximately 2 fold
- growth inhibition on day 5 (GBM 44; 0 Gy): 23.4±6.4%
- growth inhibition on day 5 (GBM 44; 3 Gy): 42±7.2%
- growth inhibition / reduction of cell numbers (CD133+ GBM stem cells): ~75%

Compound: CC(C)C[C@H](NC(=O)[C@H](Cc1ccccc1)C[C@@H](O)[C@H](Cc1ccccc1)NC(=O)OC(C)(C)C)C(=O)N[C@@H](Cc1ccccc1)C(N)=O [L-685,458]
- apoptotic cell death (T4302 CD133+ cells [1]): increased apoptotic cell death
- clonogenic survival (T4302 CD133+ cells [2]): reduced clonogenic survival

Compound: C[C@H](NC(=O)Cc1cc(F)cc(F)c1)C(=O)N[C@H](C(=O)OC(C)(C)C)c1ccccc1 [DAPT]
- apoptotic cell death (T4302 CD133+ cells [1]): increased apoptotic cell death
- clonogenic survival (T4302 CD133+ cells [2]): reduced clonogenic survival
